The text below walks through data of US7148249B2, “Indolinones substituted by heterocycles, the preparation thereof and their use as medicaments” (Boehringer Ingelheim Pharma GmbH & Co. KG, priority 2002, dated 2006).

For orientation: pIC50 means the IC50 on a negative log10 scale, so that one unit is a factor of ten. What is called melting point is the temperature of the solid-liquid transition.

Data set [1] has as its system Human umbilical endothelial cells (HUVEC). The data set is described as follows: Inhibition of VEGF165-stimulated HUVEC proliferation (3H-thymidine incorporation). Type of data set: cell-based. The following applies: Homo sapiens; HUVEC proliferation stimulated with 5 ng/ml VEGF165 and 10 μg/ml heparin; 76 h incubation + 16 h 3H-thymidine. The procedure, abridged: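 Growth-factor-starved HUVEC (16 h) stimulated with 5 ng/ml VEGF165 plus 10 μg/ml heparin, with compounds at ≤0.3% DMSO, for 76 h at 37 °C; 3H-thymidine then added for 16 h, unstimulated background subtracted, IC50 from proliferation as % of uninhibited control.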
In general terms: Incorporation of labelled thymidine or its analogues reports DNA synthesis.

SMILES strings stand for the structures. pIC50: −log10 of the molar value.

As for `CCNCc1ccc(N/C(=C2\C(=O)Nc3cc(C(=O)OC)ccc32)c2ccc3c(c2)OCCO3)cc1` [(u), 3-(Z)-{1-(4-[ethylamino-methyl]-phenylamino)-1-(3,4-ethylenedioxyphenyl)-methylene}-6-methoxycarbonyl-2-indolinone], the melting point came to 266 °C. The negative-log IC50 (pIC50) in data set [1] is 9.10.
The compound `COC(=O)c1ccc2c(c1)NC(=O)/C2=C(\Nc1ccc(CN2CCN(C)CC2)cc1)c1ccc2c(c1)OCCO2` [(v), 3-(Z)-{1-(4-[4-methylpiperazin-1-yl-methyl]-phenylamino)-1-(3,4-ethylenedioxy-phenyl)-methylene}-6-methoxycarbonyl-2-indolinone] returned a melting point of 271 to 273 °C. The pIC50 in data set [1] was 9.00.
